Results on 24 molecules are retold here after ChEMBL document CHEMBL5321248, “Syntheses and antitumor activities of neorautenol and shinpterocarpin analogs” (Bioorg Med Chem Lett, 2023).

Usually IC50 stands for the concentration needed to halve the response being measured.

Some results are limits rather than exact numbers.

One data set concerns A549. Kind of data set: Antitumor activity against human A549 cells assessed as inhibition of cell growth by MTT assay. In kind it is functional, cell-based. Background: Tetrazolium dyes change colour on reduction, which living cells bring about.
The next data set deals with NCI-H1299. Briefly: Antitumor activity against human NCI-H1299 cells assessed as inhibition of cell growth by MTT assay. In kind it is functional, cell-based.
A further data set concerns NCI-H460. Briefly: Antitumor activity against human NCI-H460 cells assessed as inhibition of cell growth by MTT assay. In kind it is functional, cell-based.
The subject of another data set is HCT-116. Kind of data set: Antitumor activity against human HCT-116 cells assessed as inhibition of cell growth by MTT assay. In kind it is functional, cell-based.
The next data set has as its system Hep 3B2. Briefly: Antitumor activity against human Hep3B cells assessed as inhibition of cell growth by MTT assay. In kind it is functional, cell-based.
Another data set concerns MDA-MB-231. Kind of data set: Antitumor activity against human MDA-MB-231 cells assessed as inhibition of cell growth by MTT assay. Type of data set: functional, cell-based.
A short description of data set [1]: Cytotoxicity against human RPE cells assessed as reduction in cell viability at 10 uM relative to control. Type of data set: toxicity, cell-based.
Data set [2] has as its system HT-22. Briefly: Cytotoxicity against mouse HT-22 cells assessed as reduction in cell viability at 10 uM relative to control. Type of data set: toxicity, cell-based. The settings on record: ht-22, 10 µM.
The nature of data set [3]: Cytotoxicity against human RPE cells assessed as reduction in cell viability at 50 uM relative to control. In kind it is toxicity, cell-based.
The test system of data set [4] is HT-22. Kind of data set: Cytotoxicity against mouse HT-22 cells assessed as reduction in cell viability at 50 uM relative to control. Type of data set: toxicity, cell-based. The settings on record: ht-22, 50 µM.

Consider `COCCOc1ccc2c(c1)O[C@H]1c3ccc4c(c3OC[C@@H]21)C=CC(C)(C)O4`, for which the IC50 in the data set with A549, in the data set on NCI-H1299, in the data set on NCI-H460, in the data set on HCT-116, with Hep 3B2 and in the data set on MDA-MB-231 was above 10 µM each time.
For the molecule `CC1(C)C=Cc2cc3c(cc2O1)OC[C@H]1c2ccc(OCCN4CCNCC4)cc2O[C@@H]31`, the IC50 was 6.7 µM in the data set with A549; 8.3 µM in the data set with NCI-H1299; 4.3 µM in the data set on NCI-H460; 4.4 µM in the data set on HCT-116; above 10 µM in the data set on Hep 3B2; 6.7 µM in the data set on MDA-MB-231. Further, the Activity is above 70% in data set [1], above 70% with HT-22 [2], “Non-Toxic” in [3] and “Toxic” in the data set with HT-22 [4].
In the case of `CC1(C)C=Cc2c(ccc3c2OC[C@H]2c4ccc([N+](=O)[O-])cc4O[C@@H]32)O1`, the 50% inhibitory concentration (IC50) with A549, with NCI-H1299, in the data set on NCI-H460, in the data set with HCT-116, in the data set on Hep 3B2 and with MDA-MB-231 was above 10 µM throughout.
For the molecule `CC1(C)C=Cc2cc3c(cc2O1)OC[C@H]1c2ccc(OCCN4CCOCC4)cc2O[C@@H]31`, the IC50 in the data set on A549, in the data set on NCI-H1299, in the data set on NCI-H460, in the data set on HCT-116, in the data set on Hep 3B2 and in the data set on MDA-MB-231 was above 10 µM each time.
As to `CC1(C)C=Cc2c(ccc3c2OC[C@H]2c4ccc(N)cc4O[C@@H]32)O1`, the IC50 with A549, with NCI-H1299, in the data set with NCI-H460, in the data set on HCT-116, in the data set on Hep 3B2 and in the data set with MDA-MB-231 was above 10 µM in each case.
Regarding `CC1(C)C=Cc2cc3c(cc2O1)OC[C@H]1c2ccc(NS(C)(=O)=O)cc2O[C@@H]31`, the IC50 with A549, with NCI-H1299, in the data set on NCI-H460, with HCT-116, in the data set on Hep 3B2 and in the data set with MDA-MB-231 was above 10 µM in each case.
`CC1(C)C=Cc2cc3c(cc2O1)OC[C@H]1c2ccc(O)cc2O[C@@H]31` [NEORAUTENOL]: the IC50 with A549 worked out at 24.6 µM; with NCI-H1299, 15 µM; with NCI-H460 it was 24.2 µM; in the data set with HCT-116, 17.4 µM; in the data set with Hep 3B2, 28.5 µM; in the data set with MDA-MB-231, 53.1 µM.
Regarding `CC1(C)C=Cc2c(ccc3c2OC[C@H]2c4ccc(OCCN5CCNCC5)cc4O[C@@H]32)O1`, the IC50 in the data set on A549, with NCI-H1299, in the data set on NCI-H460, with HCT-116, in the data set with Hep 3B2 and in the data set with MDA-MB-231 was above 10 µM throughout.
`COc1ccc2c(c1)O[C@H]1c3cc4c(cc3OC[C@@H]21)OC(C)(C)C=C4`: the IC50 in the data set on A549, with NCI-H1299, in the data set with NCI-H460, with HCT-116, in the data set on Hep 3B2 and with MDA-MB-231 was above 10 µM each time.
`COc1ccc2c(c1)OC[C@H]1c3ccc(O)cc3O[C@@H]21`: the IC50 in the data set with A549, in the data set on NCI-H1299, in the data set on NCI-H460, in the data set with HCT-116, in the data set with Hep 3B2 and in the data set with MDA-MB-231 was above 10 µM in each case.
`CC1(C)C=Cc2c(ccc3c2OC[C@H]2c4ccc(NS(C)(=O)=O)cc4O[C@@H]32)O1`: the IC50 in the data set on A549, in the data set on NCI-H1299, in the data set on NCI-H460, with HCT-116, in the data set on Hep 3B2 and in the data set on MDA-MB-231 was above 10 µM each time.
For the molecule `CC(=O)Nc1ccc2c(c1)O[C@H]1c3ccc4c(c3OC[C@@H]21)C=CC(C)(C)O4`, the IC50 in the data set on A549, in the data set with NCI-H1299, in the data set with NCI-H460, with HCT-116, in the data set with Hep 3B2 and in the data set on MDA-MB-231 was above 10 µM throughout.
`CC(=O)Nc1ccc2c(c1)O[C@H]1c3cc4c(cc3OC[C@@H]21)OC(C)(C)C=C4`: the IC50 with A549, in the data set on NCI-H1299, with NCI-H460, with HCT-116, in the data set with Hep 3B2 and in the data set with MDA-MB-231 was above 10 µM in each case.
On to `CN1CCN(CCOc2ccc3c(c2)O[C@H]2c4ccc5c(c4OC[C@@H]32)C=CC(C)(C)O5)CC1`, for which the IC50 in the data set with A549 is 6.5 µM; with NCI-H1299, 6.6 µM; in the data set with NCI-H460 it was 4.2 µM; in the data set on HCT-116, 5.2 µM; with Hep 3B2 it was above 10 µM; in the data set on MDA-MB-231, above 10 µM. The Activity was above 70% in data set [1], above 70% with HT-22 [2], “Non-Toxic” in data set [3] and “Toxic” in the data set on HT-22 [4].
With `C#CC(C)(C)Oc1ccc2c(c1)OC[C@H]1c3ccc(O)cc3O[C@@H]21`, the IC50 with A549, in the data set with NCI-H1299, with NCI-H460, in the data set on HCT-116, with Hep 3B2 and with MDA-MB-231 was above 10 µM in each case.
For the molecule `COc1ccc2c(c1)O[C@H]1c3ccc4c(c3OC[C@@H]21)C=CC(C)(C)O4`, the IC50 in the data set with A549, in the data set on NCI-H1299, with NCI-H460, with HCT-116, with Hep 3B2 and with MDA-MB-231 was above 10 µM in each case.
For `CC1(C)C=Cc2c(ccc3c2OC[C@H]2c4ccc(OCCN5CCOCC5)cc4O[C@@H]32)O1`, the IC50 in the data set on A549, with NCI-H1299, in the data set with NCI-H460, in the data set with HCT-116, with Hep 3B2 and in the data set on MDA-MB-231 was above 10 µM in each case.
For the molecule `COCCOc1ccc2c(c1)O[C@H]1c3cc4c(cc3OC[C@@H]21)OC(C)(C)C=C4`, the concentration for half-maximal inhibition (IC50) in the data set with A549, in the data set with NCI-H1299, in the data set on NCI-H460, in the data set with HCT-116, in the data set on Hep 3B2 and with MDA-MB-231 was above 10 µM in each case.
For `CC1(C)C=Cc2cc3c(cc2O1)OC[C@H]1c2ccccc2O[C@@H]31`, the IC50 in the data set on A549, with NCI-H1299, with NCI-H460, in the data set on HCT-116, with Hep 3B2 and in the data set on MDA-MB-231 was above 10 µM each time.
With `CC1(C)C=Cc2cc3c(cc2O1)OC[C@H]1c2ccc([N+](=O)[O-])cc2O[C@@H]31`, the IC50 with A549, in the data set on NCI-H1299, with NCI-H460, with HCT-116, in the data set on Hep 3B2 and in the data set on MDA-MB-231 was above 10 µM throughout.
For the molecule `CC1(C)C=Cc2cc3c(cc2O1)OC[C@H]1c2ccc(N)cc2O[C@@H]31`, the IC50 with A549, with NCI-H1299, with NCI-H460, in the data set with HCT-116, with Hep 3B2 and in the data set on MDA-MB-231 was above 10 µM in each case.
Take `CC1(C)C=Cc2c(ccc3c2OC[C@H]2c4ccccc4O[C@@H]32)O1`: the IC50 in the data set on A549, with NCI-H1299, in the data set with NCI-H460, in the data set on HCT-116, in the data set on Hep 3B2 and in the data set on MDA-MB-231 was above 10 µM in each case.
On to `CC1(C)C=Cc2c(ccc3c2OC[C@H]2c4ccc(O)cc4O[C@@H]32)O1` [SHINPTEROCARPIN], for which the IC50 turned out to be 21.6 µM in the data set with A549; 18.3 µM with NCI-H1299; 28 µM in the data set with NCI-H460; 22.4 µM in the data set with HCT-116; 30.4 µM in the data set with Hep 3B2; 52.8 µM in the data set with MDA-MB-231.
In the case of `CN(C)CCOc1ccc2c(c1)O[C@H]1c3ccc4c(c3OC[C@@H]21)C=CC(C)(C)O4`, the IC50 with A549 was 8.1 µM; in the data set on NCI-H1299 it was 9.6 µM; with NCI-H460, 5.7 µM; with HCT-116 it was 7 µM; in the data set with Hep 3B2, above 10 µM; with MDA-MB-231, above 10 µM. For the same molecule, the Activity in [1] is reported as above 70%; in the data set with HT-22 [2], above 70%; in [3] it was “Non-Toxic”; in the data set with HT-22 [4], “Toxic”.
